Test results reported in ChEMBL document CHEMBL4390694, “Benzofuran-isatin hybrids tethered via different length alkyl linkers and their in vitro anti-mycobacterial activities” (Bioorg Med Chem, 2019).
≈ marks a conversion by molar mass, not a printed value.

System: Mycobacterium tuberculosis
Test: Antimycobacterial activity against multidrug-resistant Mycobacterium tuberculosis assessed as complete inhibition of bacterial growth incubated for 7 days by rapid direct susceptibility test
Type: functional
Conditions: 168 h

| SMILES | MIC [µg/mL] |
| --- | --- |
| CCOC(=O)c1c(-c2ccc(OC)cc2)oc2ccc(OCCCCN3C(=O)C(=O)c4cc(OC)ccc43)cc12 | 4 (≈ 7.36 µM) |
| CCOC(=O)c1c(-c2ccc(OC)cc2)oc2ccc(OCCCCCCN3C(=O)C(=O)c4ccccc43)cc12 | 0.125 (≈ 0.231 µM) |
| CO[C@H]1/C=C/O[C@@]2(C)Oc3c(C)c(O)c4c(O)c(c(/C=N/N5CCN(C)CC5)c(O)c4c3C2=O)NC(=O)/C(C)=C\C=C\[C@H](C)[C@H](O)[C@@H](C)[C@@H](O)[C@@H](C)[C@H](OC(C)=O)[C@@H]1C [RIFAMPIN] | 64 (≈ 77.8 µM) |
| CCOC(=O)c1c(-c2ccc(F)cc2)oc2ccc(OCCCCCCN3C(=O)C(=O)c4cc(F)ccc43)cc12 | 0.25 (≈ 0.457 µM) |
| CCOC(=O)c1c(-c2ccc(F)cc2)oc2ccc(OCCCN3C(=O)C(=O)c4ccccc43)cc12 | 1 (≈ 2.05 µM) |
| CCOC(=O)c1c(-c2ccc(F)cc2)oc2ccc(OCCCN3C(=O)C(=O)c4cc(OC)ccc43)cc12 | 2 (≈ 3.86 µM) |
| CCOC(=O)c1c(-c2ccc(F)cc2)oc2ccc(OCCCN3C(=O)C(=O)c4cc(F)ccc43)cc12 | 1 (≈ 1.98 µM) |
| NNC(=O)c1ccncc1 [ISONIAZID] | > 128 |
| CCOC(=O)c1c(-c2ccccc2)oc2ccc(OCCCN3C(=O)C(=O)c4cc(OC)ccc43)cc12 | 0.25 (≈ 0.5 µM) |
| CCOC(=O)c1c(-c2ccc(OC)cc2)oc2ccc(OCCCN3C(=O)C(=O)c4cc(F)ccc43)cc12 | 0.25 (≈ 0.483 µM) |
| CCOC(=O)c1c(-c2ccc(OC)cc2)oc2ccc(OCCCCCN3C(=O)C(=O)c4cc(F)ccc43)cc12 | 0.25 (≈ 0.458 µM) |
| CCOC(=O)c1c(-c2ccc(OC)cc2)oc2ccc(OCCCCCCN3C(=O)C(=O)c4cc(F)ccc43)cc12 | 0.125 (≈ 0.223 µM) |
| CCOC(=O)c1c(-c2ccc(OC)cc2)oc2ccc(OCCCN3C(=O)C(=O)c4ccccc43)cc12 | 1 (≈ 2 µM) |
| CCOC(=O)c1c(-c2ccc(F)cc2)oc2ccc(OCCCCCN3C(=O)C(=O)c4cc(OC)ccc43)cc12 | 1 (≈ 1.83 µM) |
| CNC(=O)c1c(-c2ccc(O)cc2)oc2ccc(O)c(CN3CCCCC3)c12 | < 0.06 |
| CCOC(=O)c1c(-c2ccc(OC)cc2)oc2ccc(OCCCCN3C(=O)C(=O)c4ccccc43)cc12 | 1 (≈ 1.95 µM) |
